Consider two compounds from article PMC8957877, “The Resistance of Cancer Cells to Palbociclib, a Cyclin-Dependent Kinase 4/6 Inhibitor, is Mediated by the ABCB1 Transporter” (Frontiers in Pharmacology, 2022).

Each structure is given as a SMILES string.

For data set [1], the target named is T1, ABCB1 transporter (Homo sapiens, UniProt P08183).
Data set [2] addresses T1, ABCB1 transporter. Nature of the data set: biochemical.

T1 sequence (P08183 whole entry): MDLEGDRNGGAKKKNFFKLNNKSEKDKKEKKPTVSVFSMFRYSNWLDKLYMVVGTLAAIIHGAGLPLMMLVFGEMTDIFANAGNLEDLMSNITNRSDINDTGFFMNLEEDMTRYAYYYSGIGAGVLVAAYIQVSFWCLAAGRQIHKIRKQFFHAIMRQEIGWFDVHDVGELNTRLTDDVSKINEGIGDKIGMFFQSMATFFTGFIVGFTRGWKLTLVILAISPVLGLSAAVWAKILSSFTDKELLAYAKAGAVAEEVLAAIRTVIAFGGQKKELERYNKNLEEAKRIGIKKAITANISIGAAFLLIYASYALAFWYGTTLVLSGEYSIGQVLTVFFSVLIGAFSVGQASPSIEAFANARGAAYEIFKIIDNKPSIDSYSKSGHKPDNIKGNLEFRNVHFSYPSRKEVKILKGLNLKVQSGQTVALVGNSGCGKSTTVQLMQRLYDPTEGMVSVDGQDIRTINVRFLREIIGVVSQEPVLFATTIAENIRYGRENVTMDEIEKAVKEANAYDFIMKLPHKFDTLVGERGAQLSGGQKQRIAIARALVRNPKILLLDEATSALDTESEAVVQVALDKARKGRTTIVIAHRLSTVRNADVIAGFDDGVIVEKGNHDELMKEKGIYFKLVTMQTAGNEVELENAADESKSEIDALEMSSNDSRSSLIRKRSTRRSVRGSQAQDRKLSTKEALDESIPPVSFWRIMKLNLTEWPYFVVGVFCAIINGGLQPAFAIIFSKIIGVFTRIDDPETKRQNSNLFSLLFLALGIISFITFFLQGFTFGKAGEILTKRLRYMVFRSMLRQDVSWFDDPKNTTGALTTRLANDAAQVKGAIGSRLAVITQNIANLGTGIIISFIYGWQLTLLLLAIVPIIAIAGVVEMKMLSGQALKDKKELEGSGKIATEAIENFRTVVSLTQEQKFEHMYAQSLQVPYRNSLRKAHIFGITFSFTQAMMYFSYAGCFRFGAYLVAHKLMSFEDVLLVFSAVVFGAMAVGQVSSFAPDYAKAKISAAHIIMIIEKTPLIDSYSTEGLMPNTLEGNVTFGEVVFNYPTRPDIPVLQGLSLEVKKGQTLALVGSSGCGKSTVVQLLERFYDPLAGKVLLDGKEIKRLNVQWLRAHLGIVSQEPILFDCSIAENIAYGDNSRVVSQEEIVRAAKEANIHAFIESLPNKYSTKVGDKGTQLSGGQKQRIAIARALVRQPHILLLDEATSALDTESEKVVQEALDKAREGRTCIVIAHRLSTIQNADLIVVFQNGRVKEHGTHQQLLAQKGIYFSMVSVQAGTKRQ

Regarding `CC(=O)O[C@H]1C(=O)[C@@]2(C)[C@H]([C@H](OC(=O)c3ccccc3)[C@]3(O)C[C@H](OC(=O)[C@H](O)[C@@H](NC(=O)c4ccccc4)c4ccccc4)C(C)=C1C3(C)C)[C@]1(OC(C)=O)CO[C@@H]1C[C@@H]2O` [[^3H]-paclitaxel], the “radiolabelled substrate accumulation/efflux in ABCB1-overexpressing KB-C2 vs par” value at ABCB1 transporter [1] was “significantly greater than that of KB-C2 drug-resistant cancer cell line, due to an increase in the extrusion of [^3H]-paclitaxel”.
As a reminder, the EC50 is the concentration giving half of the maximal effect. Higher therefore signals a need for much substance. Turning to `CC(=O)c1c(C)c2cnc(Nc3ccc(N4CCNCC4)cn3)nc2n(C2CCCC2)c1=O` [palbociclib], the EC50 on ABCB1 transporter [2] came out at 4.73 µM. This lies in the single-digit micromolar range.
